# PubChem BioAssay AID248 (DTP/NCI, 2004)
# Several values for one entry are separate records, joined by “and”; a condition that tells them apart may be missing. Equal values may be shown once. Toxic doses and inconclusive results are not listed.
# Tested on: L1210 leukemia ip in BDF1 mice, survival T/C
# Experiment: NCI In Vivo Anticancer Drug Screen. Data for tumor model L1210 Leukemia (intraperitoneal) in B6D2F1 (BDF1) mice
# Conditions: endpoint: mean survival time, higher = longer survival
# Procedure, shortened: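 In this screen, tumor-bearing mice given compound are compared to those given vehicle, and their survival values are reported as a treated-to-control quotient.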
# [1] = dose: 100.0 mg/kg/injection, schedule: Q04DX003 (ip), vehicle: saline
# [2] = dose: 200.0 mg/kg/injection, schedule: Q04DX003 (ip), vehicle: saline
# [3] = dose: 400.0 mg/kg/injection, schedule: Q04DX003 (ip), vehicle: saline
# [4] = dose: 100.0 mg/kg/injection, schedule: Q01DX009 (ip), vehicle: saline with Tween-80
# [5] = dose: 200.0 mg/kg/injection, schedule: Q01DX009 (ip), vehicle: saline with Tween-80
# [6] = dose: 100.0 mg/kg/injection, schedule: Q01DX001 (ip), vehicle: saline
# [7] = dose: 200.0 mg/kg/injection, schedule: Q01DX001 (ip), vehicle: saline
compound,measurement,setting,value
CC(=O)OC1CC2(O)C(CCC3(C)C(c4ccc(=O)oc4)CCC32O)C2(C)C1=CC(O)C1OC12 (stereo not drawn),T/C,"dose: 0.06 mg/kg/injection, schedule: Q01DX001 (sc), vehicle: steriod suspending solution",105 % of control
same,T/C,"dose: 0.13 mg/kg/injection, schedule: Q01DX001 (sc), vehicle: steriod suspending solution",103 % of control
same,T/C,"dose: 0.25 mg/kg/injection, schedule: Q01DX001 (sc), vehicle: steriod suspending solution",105 % of control
same,T/C,"dose: 0.5 mg/kg/injection, schedule: Q01DX001 (sc), vehicle: steriod suspending solution",100 % of control and 102 % of control
same,T/C,"dose: 1.0 mg/kg/injection, schedule: Q01DX001 (sc), vehicle: steriod suspending solution",96 % of control
same,T/C,"dose: 2.0 mg/kg/injection, schedule: Q01DX001 (sc), vehicle: steriod suspending solution",104 % of control
CC(C)N(CCO)CCO,T/C,[1],100 % of control
same,T/C,[2],102 % of control
same,T/C,[3],100 % of control
CC(=O)c1ccc(N=C2C=CC(=O)O2)cc1,T/C,[4],104 % of control
same,T/C,[5],105 % of control
same,T/C,"dose: 400.0 mg/kg/injection, schedule: Q01DX009 (ip), vehicle: saline with Tween-80",100 % of control
CC12CCC3c4ccc(Oc5ccccc5[N+](=O)[O-])cc4CCC3C1CCC2=O (stereo not drawn),T/C,"dose: 100.0 mg/kg/injection, schedule: Q01DX001 (sc), vehicle: steriod suspending solution",100 % of control
same,T/C,"dose: 200.0 mg/kg/injection, schedule: Q01DX001 (sc), vehicle: steriod suspending solution",103 % of control
same,T/C,"dose: 400.0 mg/kg/injection, schedule: Q01DX001 (sc), vehicle: steriod suspending solution",103 % of control
O=C(C[n+]1ccccc1/C=N/Nc1ccccc1)c1ccccc1,T/C,"dose: 75.0 mg/kg/injection, schedule: Q01DX001 (ip), vehicle: saline",95 % of control
same,T/C,"dose: 150.0 mg/kg/injection, schedule: Q01DX001 (ip), vehicle: saline",95 % of control
same,T/C,"dose: 300.0 mg/kg/injection, schedule: Q01DX001 (ip), vehicle: saline",97 % of control
CCCCCCCCCCCCCCCC(=O)Nc1cccc(C)c1C,T/C,"dose: 100.0 mg/kg/injection, schedule: Q04DX002 (ip), vehicle: saline with Tween-80",93 % of control
same,T/C,"dose: 200.0 mg/kg/injection, schedule: Q04DX002 (ip), vehicle: saline with Tween-80",86 % of control
O=NN1CCCNC1=O,T/C,"dose: 3.0 mg/kg/injection, schedule: Q01DX Z (ip), vehicle: carboxymethylcellulose (CMC)",105 % of control
same,T/C,"dose: 6.0 mg/kg/injection, schedule: Q01DX Z (ip), vehicle: carboxymethylcellulose (CMC)",107 % of control
same,T/C,"dose: 12.0 mg/kg/injection, schedule: Q01DX Z (ip), vehicle: carboxymethylcellulose (CMC)",110 % of control
same,T/C,"dose: 50.0 mg/kg/injection, schedule: Q01DX Z (ip), vehicle: carboxymethylcellulose (CMC)",181 % of control
same,T/C,"dose: 75.0 mg/kg/injection, schedule: Q01DX Z (ip), vehicle: carboxymethylcellulose (CMC)",118 % of control
same,T/C,"dose: 100.0 mg/kg/injection, schedule: Q01DX Z (ip), vehicle: carboxymethylcellulose (CMC)",87 % of control
CC1CC[N-]CC1.CC1CC[N-]CC1.CC1CC[N-]CC1.CC1CC[N-]CC1.O=C([O-])C(=O)[O-].O=C([O-])C(=O)[O-].[Nb+5].[O-][O-].[O-][O-].[Pt+4],T/C,"dose: 0.25 mg/kg/injection, schedule: Q01DX009 (ip), vehicle: saline",96 % of control
same,T/C,"dose: 0.39 mg/kg/injection, schedule: Q04DX003 (ip), vehicle: saline",110 % of control
same,T/C,"dose: 0.5 mg/kg/injection, schedule: Q01DX009 (ip), vehicle: saline",93 % of control
same,T/C,"dose: 0.78 mg/kg/injection, schedule: Q04DX003 (ip), vehicle: saline",110 % of control
same,T/C,"dose: 1.0 mg/kg/injection, schedule: Q01DX009 (ip), vehicle: saline",98 % of control
same,T/C,"dose: 1.56 mg/kg/injection, schedule: Q04DX003 (ip), vehicle: saline",101 % of control
same,T/C,"dose: 2.0 mg/kg/injection, schedule: Q01DX009 (ip), vehicle: saline",102 % of control
same,T/C,"dose: 3.12 mg/kg/injection, schedule: Q04DX003 (ip), vehicle: saline",96 % of control and 111 % of control
CCCCCCCCCCCCCCCC(CCCC)C1CCCCC1 (stereo not drawn),T/C,"dose: 100.0 mg/kg/injection, schedule: Q01DX001 (ip), vehicle: saline + alcohol",100 % of control
same,T/C,"dose: 200.0 mg/kg/injection, schedule: Q01DX001 (ip), vehicle: saline + alcohol",98 % of control
same,T/C,"dose: 400.0 mg/kg/injection, schedule: Q01DX001 (ip), vehicle: saline + alcohol",96 % of control
Cc1ccc(S(=O)(=O)CCN2CCN(C)CC2)cc1,T/C,[6],100 % of control
same,T/C,[7],94 % of control
CC12C=CC(=O)C=C1CCC1C3CCC(O)(C(=O)CO)C3(C)CC(O)C12F (stereo not drawn),T/C,"dose: 25.0 mg/kg/injection, schedule: Q04DX003 (sc), vehicle: steriod suspending solution",108 % of control
same,T/C,"dose: 50.0 mg/kg/injection, schedule: Q04DX003 (sc), vehicle: steriod suspending solution",106 % of control
same,T/C,"dose: 100.0 mg/kg/injection, schedule: Q04DX003 (sc), vehicle: steriod suspending solution",123 % of control
same,T/C,"dose: 150.0 mg/kg/injection, schedule: Q04DX003 (sc), vehicle: steriod suspending solution",100 % of control
same,T/C,"dose: 225.0 mg/kg/injection, schedule: Q04DX003 (sc), vehicle: steriod suspending solution",111 % of control
same,T/C,"dose: 335.0 mg/kg/injection, schedule: Q04DX003 (sc), vehicle: steriod suspending solution",105 % of control
CN(C)C(=S)Oc1ccccc1[N+](=O)[O-],T/C,"dose: 100.0 mg/kg/injection, schedule: Q04DX003 (ip), vehicle: saline with Tween-80",100 % of control
same,T/C,"dose: 200.0 mg/kg/injection, schedule: Q04DX003 (ip), vehicle: saline with Tween-80",103 % of control
same,T/C,"dose: 400.0 mg/kg/injection, schedule: Q04DX003 (ip), vehicle: saline with Tween-80",114 % of control
O=C1C=CC(=O)c2[nH]c(-c3ccccc3)cc21,T/C,"dose: 12.5 mg/kg/injection, schedule: Q04DX002 (ip), vehicle: Klucel (hydroxypropylcellulose) (HPC)",93 % of control
same,T/C,"dose: 25.0 mg/kg/injection, schedule: Q04DX002 (ip), vehicle: Klucel (hydroxypropylcellulose) (HPC)",105 % of control
CCCCCCCCCCNCCCCNCCCCCCCCCC,T/C,"dose: 1.56 mg/kg/injection, schedule: Q01DX009 (ip), vehicle: Klucel (hydroxypropylcellulose) (HPC)",92 % of control
same,T/C,"dose: 3.12 mg/kg/injection, schedule: Q01DX009 (ip), vehicle: Klucel (hydroxypropylcellulose) (HPC)",87 % of control
same,T/C,"dose: 6.25 mg/kg/injection, schedule: Q01DX009 (ip), vehicle: Klucel (hydroxypropylcellulose) (HPC)",92 % of control and 93 % of control
NCCOP(=O)(O)O,T/C,"dose: 50.0 mg/kg/injection, schedule: Q01DX009 (ip), vehicle: saline",95 % of control
same,T/C,"dose: 100.0 mg/kg/injection, schedule: Q01DX009 (ip), vehicle: saline",98 % of control
same,T/C,"dose: 200.0 mg/kg/injection, schedule: Q01DX009 (ip), vehicle: saline",106 % of control
Cc1coc(NS(=O)(=O)c2ccc(N=Nc3cc(N=Nc4ccccc4)c(N)nc3N)cc2)c1C,T/C,"dose: 100.0 mg/kg/injection, schedule: Q01DX001 (ip), vehicle: carboxymethylcellulose (CMC)",94 % of control
same,T/C,"dose: 200.0 mg/kg/injection, schedule: Q01DX001 (ip), vehicle: carboxymethylcellulose (CMC)",105 % of control
CCC(=O)c1ccc(-c2ccccc2)cc1,T/C,"dose: 175.0 mg/kg/injection, schedule: Q04DX002 (ip), vehicle: Klucel (hydroxypropylcellulose) (HPC)",102 % of control
same,T/C,"dose: 350.0 mg/kg/injection, schedule: Q04DX002 (ip), vehicle: Klucel (hydroxypropylcellulose) (HPC)",98 % of control
CCCCCCCCCCCCCCCCCC/C(CC)=N/Nc1ccc([N+](=O)[O-])cc1[N+](=O)[O-],T/C,"dose: 100.0 mg/kg/injection, schedule: Q01DX001 (ip), vehicle: Klucel (hydroxypropylcellulose) (HPC)",101 % of control
same,T/C,"dose: 200.0 mg/kg/injection, schedule: Q01DX001 (ip), vehicle: Klucel (hydroxypropylcellulose) (HPC)",103 % of control
same,T/C,"dose: 400.0 mg/kg/injection, schedule: Q01DX001 (ip), vehicle: Klucel (hydroxypropylcellulose) (HPC)",97 % of control
CCOC(=O)n1cnc(N)n1,T/C,"dose: 100.0 mg/kg/injection, schedule: Q01DX009 (ip), vehicle: Klucel (hydroxypropylcellulose) (HPC)",104 % of control
same,T/C,"dose: 200.0 mg/kg/injection, schedule: Q01DX009 (ip), vehicle: Klucel (hydroxypropylcellulose) (HPC)",104 % of control
same,T/C,"dose: 400.0 mg/kg/injection, schedule: Q01DX009 (ip), vehicle: Klucel (hydroxypropylcellulose) (HPC)",107 % of control
O=C(CI)c1ccc[nH]1,T/C,"dose: 50.0 mg/kg/injection, schedule: Q01DX001 (ip), vehicle: saline",100 % of control
same,T/C,[6],100 % of control
same,T/C,[7],103 % of control
Cc1ccc(C)c(S(=O)(=O)OCC#CCOS(=O)(=O)c2cc(C)ccc2C)c1,T/C,"dose: 50.0 mg/kg/injection, schedule: Q01DX009 (ip), vehicle: saline with Tween-80",92 % of control
same,T/C,[4],92 % of control
same,T/C,[1],97 % of control
same,T/C,[5],87 % of control
same,T/C,[2],97 % of control
same,T/C,[3],91 % of control
Cc1c(O)c2cccc(-c3ccccc3)c2oc1=O,T/C,[1],87 % of control
same,T/C,[2],91 % of control
same,T/C,[3],109 % of control
